# Test results taken from patent US20230219906A1, “MACROCYCLIC-2-AMINO-3-FLUORO-BUT-3-ENAMIDES AS INHIBITORS OF MCL-1” (Janssen Pharmaceutica NV, priority 2020, published 2023).
# Where two headings read alike, the source gives them in different places.
# Columns and labels:
# [1] = molecular target: Myeloid Cell Leukemia 1(Mcl-1) (Homo sapiens, UniProt Q07820); test: Terbium labeled Mcl-1 HTRF binding assay with Cy5-labeled BIM BH3 peptide; details: displacement of Cy5 Bim BH3 peptide; Ki=IC50/(1+[L]/Kd), [L]=8 nM, Kd=10 nM; 60 minutes at room temperature; read-out: Tb-MCL1 Ki
# Myeloid Cell Leukemia 1(Mcl-1), sequence (Q07820 whole entry): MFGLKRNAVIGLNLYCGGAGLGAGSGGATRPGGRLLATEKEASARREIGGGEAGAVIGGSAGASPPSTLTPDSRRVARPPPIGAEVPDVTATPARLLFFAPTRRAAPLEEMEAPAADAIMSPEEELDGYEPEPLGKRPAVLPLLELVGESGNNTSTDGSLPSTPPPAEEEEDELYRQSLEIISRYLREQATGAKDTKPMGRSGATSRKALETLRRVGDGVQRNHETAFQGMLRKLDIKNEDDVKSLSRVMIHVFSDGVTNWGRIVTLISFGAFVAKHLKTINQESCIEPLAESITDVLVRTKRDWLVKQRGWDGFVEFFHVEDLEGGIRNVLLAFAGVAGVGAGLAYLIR
# Protocol: Terbium labeled Myeloid Cell Leukemia 1(Mcl-1) homogeneous time-resolved fluorescence (HTRF) binding assay utilizing the BIM BH3 peptide (H2N—(C/Cy5Mal) WIAQELRRIGDEFN-OH) as the binding partner for Mcl-1.
# This assay evaluated inhibition of the BH3 domain: Mcl-1 interaction by measuring the displacement of Cy5-labeled BIM BH3 peptide (H2N—(C/Cy5Mal) WIAQELRRIGDEFN-OH) in the HTRF assay format.
# The following assay and stock buffers were prepared for use in the assay: (a) Stock buffer: 10 mM Tris-HCl, pH=7.5+150 mM NaCl, filtered, sterilized, and stored at 4° C.; and (b) 1X assay buffer, where the following ingredients were added fresh to stock buffer: 2 mM dithiothreitol (DTT), 0.0025% Tween-20, 0.1 mg/mL bovine serum albumin (BSA). The 1X Tb-Mcl-1+Cy5 Bim peptide solution was prepared by diluting the protein stock solution using the 1X assay buffer (b) to 25 pM Tb-Mcl-1 and 8 nM Cy5 Bim peptide.
# Using the Acoustic ECHO, 100 nL of 100x test compound(s) were dispensed into individual wells of a white 384-well Perkin Elmer Proxiplate, for a final compound concentration of 1× and final DMSO concentration of 1%. Inhibitor control and neutral control (NC, 100 nL of 100% DMSO) were stamped into columns 23 and 24 of assay plate, respectively. Into each well of the plate was then dispensed 10 μL of the 1X Tb-Mcl-1+Cy5 Bim peptide solution. The plate was centrifuged with a cover plate at 1000 rpm for 1 minute, then incubated for 60 minutes at room temperature with plates covered.
# The TR-FRET signal was read on an BMG PHERAStar FSX MicroPlate Reader at room temperature using the HTRF optic module (HTRF: excitation: 337 nm, light source: laser, emission A: 665 nm, emission B: 620 nm, integration start: 60 μs, integration time: […]).
# The BMG PHERAStar FSX MicroPlate Reader was used to measure fluorescence intensity at two emission wavelengths—665 nm and 620 nm—and report relative fluorescence units (RFU) for both emissions, as well as a ratio of the emissions (665 nm/620 nm)*10,000. The RFU values were normalized to percent inhibition as follows:
# % inhibition=(((NC−IC)−(compound−IC))/(NC−IC))*100
# where IC (inhibitor control, low signal)= mean signal of 1X Tb-MCl-1+Cy5 Bim peptide+inhibitor control or 100% inhibition of Mcl-1; NC (neutral control, high signal)= mean signal 1X Tb-MCl-1+Cy5 Bim peptide with DMSO only or 0% inhibition An 11-point dose response curve was generated to determine IC50 values (using GenData) based on the following equation:
# Y=Bottom+(Top−Bottom)/(1+10∧((log IC50−X)*HillSlope))
# where Y=% inhibition in the presence of X inhibitor concentration; Top=100% inhibition derived from the IC (mean signal of Mcl-1+inhibitor control); Bottom=0% inhibition derived from the NC (mean signal of Mcl-1+DMSO); Hillslope=Hill coefficient; and IC50=concentration of compound with 50% inhibition in relation to top/neutral control (NC).
# In this assay [L]=8 nM and Kd=10 nM
# [2] = test system: MOLP-8 human multiple myeloma cell line; test: Caspase-Glo 3/7 apoptosis induction assay in MOLP-8 cells; assay type: cell-based; details: caspase-3/7 activity, 2 hours at 37° C., averaged over all runs on all batches, read-out: MOLP8 AC50
# Excerpt: MCL-1 is a regulator of apoptosis and is highly over-expressed in tumor cells that escape cell death. The assay evaluates the cellular potency of small-molecule compounds targeting regulators of the apoptosis pathway, primarily MCL-1, Bfl-1, Bcl-2, and other proteins of the Bcl-2 family. Protein-protein inhibitors disrupting the interaction of anti-apoptotic regulators with BH3-domain proteins initiate apoptosis.
# The Caspase-Glo® 3/7 Assay is a luminescent assay that measures caspase-3 and −7 activities in purified enzyme preparations or cultures of adherent or suspension cells. The assay provides a proluminescent caspase-3/7 substrate, which contains the tetrapeptide sequence DEVD. This substrate is cleaved to release aminoluciferin, a substrate of luciferase used in the production of light. Addition of the single Caspase-Glo® 3/7 Reagent in an “add-mix-measure” format results in cell lysis, followed by caspase cleavage of the substrate and generation of a “glow-type” luminescent signal.
# This assay uses the MOLP-8 human multiple myeloma cell line, which is sensitive to MCL-1 inhibition.
# Cell cultures were maintained between 0.2 and 2.0×10^6 cells/mL. The cells were harvested by collection in 50 mL conical tubes. The cells were then pelleted at 500 g for 5 mins before removing supernatant and resuspension in fresh pre-warmed culture medium. The cells were counted and diluted as needed.
# The assay reagent was prepared by transferring the buffer solution to the substrate vial and mixing. The solution may be stored for up to 1 week at 4° C. with negligible loss of signal.
# Compounds were delivered in assay-ready plates (Proxiplate) and stored at −20° C. Assays always include 1 reference compound plate containing reference compounds. The plates were spotted with 40 nL of compounds (0.5% DMSO final in cells; serial dilution; […] highest conc. 1/3 dilution, 10 doses, duplicates). The compounds were used at room temperature and 4 μL of pre-warmed media was added to all wells except column 2 and 23. The negative control was prepared by adding 1% DMSO in media. The positive control was prepared by adding the appropriate positive control compound in final concentration of […] in media. The plate was prepared by adding 4 μL negative control to column 23, 4 μL positive control to column 2 and 4 μL cell suspension to all wells in the plate. The plate with cells was then incubated at 37° C. for 2 hours. The assay signal reagent is the Caspase-Glo solution described above, and 8 μL was added to all wells. The plates were then sealed and measured after 30 minutes.
# The activity of a test compound was calculated as percent change in apoptosis induction as follows:
# % Effect (AC50)=100−(sample-LC)/(HC-LC)*100
# % Control=(sample/HC)*100
# % Control min=(sample-LC)/(HC-LC)*100
Compound,Ki [1] [nM],AC50 [2] [nM],"AC50 ([2]; Homo sapiens, MOLP-8, 2 h) [nM]"
CC1CN(CCN(C)C(=O)[C@H]2/C(F)=C/C[C@H](C)[C@@H](C)S(=O)(=O)NC(=O)c3ccc4c(c3)N(C[C@@H]3CCCN32)C[C@@]2(CCCc3cc(Cl)ccc32)CO4)CC(C)O1 (mixture of isomers) [Compound 45],0.113,113,–
C[C@@H]1[C@@H](C)C/C=C(\F)[C@H](C(=O)N(C)CCN2CCOCC2C(F)(F)F)N2CCC[C@H]2CN2C[C@@]3(CCCc4cc(Cl)ccc43)COc3ccc(cc32)C(=O)NS1(=O)=O (mixture of isomers) [Compound 50],0.146,–,175
"C[C@@H]1[C@@H](C)C/C=C(\F)[C@H](C(=O)N(C)CCC2CCOCC2)N2CCC[C@H]2CN2C[C@@]3(CCCc4cc(Cl)ccc43)COc3ccc(cc32)C(=O)NS1(=O)=O (single isomer, unassigned) [Compound 2]",0.089,–,89.2
"C[C@@H]1COCCN1C(=O)[C@H]1/C(F)=C/C[C@H](C)[C@@H](C)S(=O)(=O)NC(=O)c2ccc3c(c2)N(C[C@@H]2CCCN21)C[C@@]1(CCCc2cc(Cl)ccc21)CO3 (single isomer, unassigned) [Compound 11]",0.032,–,163
"C[C@@H]1[C@@H](C)C/C=C(\F)[C@H](C(=O)N2CCCC3(CCOC3)C2)N2CCC[C@H]2CN2C[C@@]3(CCCc4cc(Cl)ccc43)COc3ccc(cc32)C(=O)NS1(=O)=O (single isomer, unassigned) [Compound 14]",0.126,–,266
"C[C@@H]1[C@@H](C)C/C=C(\F)[C@H](C(=O)N2CCCC3(CC3)C2)N2CCC[C@H]2CN2C[C@@]3(CCCc4cc(Cl)ccc43)COc3ccc(cc32)C(=O)NS1(=O)=O (single isomer, unassigned) [Compound 16]",0.446,–,446
"C[C@@H]1[C@@H](C)C/C=C(\F)[C@H](C(=O)N2CCOC(C(F)(F)F)C2)N2CCC[C@H]2CN2C[C@@]3(CCCc4cc(Cl)ccc43)COc3ccc(cc32)C(=O)NS1(=O)=O (single isomer, unassigned) [Compound 20]",0.255,–,193
"C[C@@H]1[C@@H](C)C/C=C(\F)[C@@H](C(=O)N(C)CCN2CCOCC2)N2CCC[C@H]2CN2C[C@@]3(CCCc4cc(Cl)ccc43)COc3ccc(cc32)C(=O)NS1(=O)=O (single isomer, unassigned) [Compound 33]",0.195,–,218
"C[C@@H]1[C@@H](C)C/C=C(\F)[C@H](C(=O)N(C)CCN2CCOC(C(F)(F)F)C2)N2CCC[C@H]2CN2C[C@@]3(CCCc4cc(Cl)ccc43)COc3ccc(cc32)C(=O)NS1(=O)=O (single isomer, unassigned) [Compound 49]",0.287,–,366
"COCCCN(C)C(=O)[C@H]1/C(F)=C/C[C@H](C)[C@@H](C)S(=O)(=O)NC(=O)c2ccc3c(c2)N(C[C@@H]2CCCN21)C[C@@]1(CCCc2cc(Cl)ccc21)CO3 (single isomer, unassigned) [Compound 51]",0.04,–,78.3
"C[C@@H]1[C@@H](C)C/C=C(\F)[C@H](C(=O)N(C)CC2COCCO2)N2CCC[C@H]2CN2C[C@@]3(CCCc4cc(Cl)ccc43)COc3ccc(cc32)C(=O)NS1(=O)=O (single isomer, unassigned) [Compound 54]",0.042,–,76.4
"C[C@@H]1[C@@H](C)C/C=C(\F)[C@H](C(=O)N(C)CC2COCCO2)N2CCC[C@H]2CN2C[C@@]3(CCCc4cc(Cl)ccc43)COc3ccc(cc32)C(=O)NS1(=O)=O (single isomer, unassigned) [Compound 55]",0.037,81.2,–
"C[C@@H]1[C@@H](C)C/C=C(\F)[C@H](C(=O)N(C)CC2CCOC2)N2CCC[C@H]2CN2C[C@@]3(CCCc4cc(Cl)ccc43)COc3ccc(cc32)C(=O)NS1(=O)=O (single isomer, unassigned) [Compound 56]",0.038,–,89.4
"C[C@@H]1[C@@H](C)C/C=C(\F)[C@H](C(=O)N(C)CC2CCOC2)N2CCC[C@H]2CN2C[C@@]3(CCCc4cc(Cl)ccc43)COc3ccc(cc32)C(=O)NS1(=O)=O (single isomer, unassigned) [Compound 57]",0.051,84.4,–
"C[C@@H]1[C@@H](C)C/C=C(\F)[C@H](C(=O)N(C)C2CCCOC2)N2CCC[C@H]2CN2C[C@@]3(CCCc4cc(Cl)ccc43)COc3ccc(cc32)C(=O)NS1(=O)=O (single isomer, unassigned) [Compound 62]",0.058,–,134
"C[C@@H]1[C@@H](C)C/C=C(\F)[C@H](C(=O)N(C)C2CCCOC2)N2CCC[C@H]2CN2C[C@@]3(CCCc4cc(Cl)ccc43)COc3ccc(cc32)C(=O)NS1(=O)=O (single isomer, unassigned) [Compound 63]",0.041,57.4,–
"C[C@@H]1[C@@H](C)C/C=C(\F)[C@H](C(=O)N(C)CC2CCCOC2)N2CCC[C@H]2CN2C[C@@]3(CCCc4cc(Cl)ccc43)COc3ccc(cc32)C(=O)NS1(=O)=O (single isomer, unassigned) [Compound 64]",0.083,–,74.7
"C[C@@H]1[C@@H](C)C/C=C(\F)[C@H](C(=O)N(C)CC2CCCOC2)N2CCC[C@H]2CN2C[C@@]3(CCCc4cc(Cl)ccc43)COc3ccc(cc32)C(=O)NS1(=O)=O (single isomer, unassigned) [Compound 65]",0.062,56.7,–
"C[C@@H]1[C@@H](C)C/C=C(\F)[C@H](C(=O)N(C)C2CCOC2)N2CCC[C@H]2CN2C[C@@]3(CCCc4cc(Cl)ccc43)COc3ccc(cc32)C(=O)NS1(=O)=O (single isomer, unassigned) [Compound 68]",0.041,–,103
C[C@@H]1[C@@H](C)C/C=C(\F)[C@H](C(=O)N2CCO[C@@H](C)C2)N2CCC[C@H]2CN2C[C@@]3(CCCc4cc(Cl)ccc43)COc3ccc(cc32)C(=O)NS1(=O)=O [Compound 6],–,–,84.3
